In article PMC8119466, “A screen of FDA-approved drugs identifies inhibitors of protein tyrosine phosphatase 4A3 (PTP4A3 or PRL-3)” (Scientific Reports, 2021):
Structures can show the parent of a compound that is named as a salt. Where two headings read alike, the source gives them in different places.

Assays:
Assay type in all cases: biochemical
recombinant PRL-1 = biological target: T1, recombinant PRL-1 (Homo sapiens, UniProt Q93096); experiment: In vitro phosphatase assay (DiFMUP hydrolysis), PRL-1; note: test concentration or dose not given here
T1 construct: 6xHis (N, cleaved yes); made in house; host or cells: E. coli One Shot BL21 Star
T1 sequence (Q93096 1-173): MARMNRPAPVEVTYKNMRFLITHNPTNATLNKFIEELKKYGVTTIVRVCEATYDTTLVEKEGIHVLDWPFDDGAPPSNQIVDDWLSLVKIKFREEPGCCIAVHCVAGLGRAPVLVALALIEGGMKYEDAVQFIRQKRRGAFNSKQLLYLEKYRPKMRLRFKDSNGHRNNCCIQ

recombinant PRL-2 = biological target: T2, recombinant PRL-2 (Homo sapiens, UniProt Q12974); experiment: In vitro phosphatase assay (DiFMUP hydrolysis), PRL-2;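 note: PRL-2 activity read as DiFMUP hydrolysis after 20 min at room temperature with drug, enzyme first pre-reduced at 4 °C for 20 min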
T2 construct: 6xHis (N, cleaved yes); made in house; host or cells: E. coli One Shot BL21 Star
T2 sequence (Q12974 1-167): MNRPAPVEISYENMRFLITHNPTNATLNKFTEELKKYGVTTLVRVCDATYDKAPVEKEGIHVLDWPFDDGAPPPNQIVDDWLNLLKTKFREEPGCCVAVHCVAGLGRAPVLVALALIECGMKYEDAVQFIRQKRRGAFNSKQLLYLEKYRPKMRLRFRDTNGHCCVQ

recombinant PRL-3 = biological target: T3, recombinant PRL-3 (Homo sapiens, UniProt O75365); experiment: In vitro phosphatase assay (DiFMUP hydrolysis), PRL-3; note: test concentration or dose not given here
T3 construct: 6xHis (N, cleaved yes); made in house; host or cells: E. coli One Shot BL21 Star
T3 sequence (O75365 whole entry): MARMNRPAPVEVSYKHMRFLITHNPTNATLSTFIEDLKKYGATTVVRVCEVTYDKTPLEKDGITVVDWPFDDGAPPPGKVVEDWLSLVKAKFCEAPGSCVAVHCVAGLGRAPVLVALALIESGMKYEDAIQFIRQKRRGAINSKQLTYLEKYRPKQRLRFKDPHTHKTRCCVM

[1] = FDA-approved drug screen, compared to DMSO

SMILES	% Phosphatase Activity (compared to DMSO) PRL-1 (recombinant PRL-1; [1])	% Phosphatase Activity (compared to DMSO) PRL-2 (recombinant PRL-2; [1])	% Phosphatase Activity (compared to DMSO) PRL-3 (recombinant PRL-3; [1])	% Phosphatase Activity (compared to DMSO) PRL-1 (recombinant PRL-1)	% Phosphatase Activity (compared to DMSO) PRL-2 (recombinant PRL-2)	% Phosphatase Activity (compared to DMSO) PRL-3 (recombinant PRL-3)
O=c1[nH]c(=O)n(C2CCCO2)cc1F (stereo not drawn) [FT-207 (NSC 148958)]	115%	95%	73%	–	–	–
CC(=O)OCC(CCn1cnc2cnc(N)nc21)COC(C)=O [Famciclovir]	107%	115%	79%	–	–	–
NC(N)=Nc1nc(CSCCC(N)=NS(N)(=O)=O)cs1 [Famotidine]	–	–	–	110%	115%	86%
Cl.O=S(=O)(c1cccc2cnccc12)N1CCCNCC1 [Fasudil (HA-1077) HCl]	102%	95%	82%	–	–	–
Cc1nc(-c2ccc(OCC(C)C)c(C#N)c2)sc1C(=O)O [Febuxostat]	95%	85%	89%	–	–	–
NC(=O)OCC(COC(N)=O)c1ccccc1 [Felbamate]	103%	97%	71%	–	–	–
CCOC(=O)C1=C(C)NC(C)=C(C(=O)OC)C1c1cccc(Cl)c1Cl (stereo not drawn) [Felodipine]	161%	227%	132%	–	–	–
O=C(O)CCC(=O)c1ccc(-c2ccccc2)cc1 [Fenbufen]	98%	103%	90%	–	–	–
CC(C)OC(=O)C(C)(C)Oc1ccc(C(=O)c2ccc(Cl)cc2)cc1 [Fenofibrate]	88%	89%	101%	–	–	–
CC(C)(Oc1ccc(C(=O)c2ccc(Cl)cc2)cc1)C(=O)O [Fenofibric acid]	104%	122%	109%	–	–	–
CS(=O)(=O)O.Oc1ccc(C2CNCCc3c2cc(O)c(O)c3Cl)cc1 (stereo not drawn) [Fenoldopam (mesylate)]	108%	102%	96%	–	–	–
CC(C(=O)[O-])c1cccc(Oc2ccccc2)c1.CC(C(=O)[O-])c1cccc(Oc2ccccc2)c1.[Ca+2] (stereo not drawn) [Fenoprofen Calcium]	82%	80%	95%	–	–	–
O=C1NCC2(CCN(CCc3ccccc3)CC2)O1 [Fenspiride HCl]	90%	101%	104%	–	–	–
Clc1ccc(C(Cn2ccnc2)OCc2ccc(Sc3ccccc3)cc2)c(Cl)c1 (stereo not drawn) [Fenticonazole Nitrate]	107%	117%	110%	–	–	–
CC(C)C(=O)Oc1ccc(CO)cc1[C@H](CCN(C(C)C)C(C)C)c1ccccc1 [Fesoterodine Fumarate]	89%	100%	95%	–	–	–
CC(C)(C(=O)O)c1ccc(C(O)CCCN2CCC(C(O)(c3ccccc3)c3ccccc3)CC2)cc1 (stereo not drawn) [Fexofenadine HCl]	–	–	–	109%	92%	89%
CCc1c(Cl)c(O)c(Cl)c(O)c1C(=O)O[C@H]1[C@H](O)[C@H](OC)[C@H](OC/C2=C\C=C\C[C@H](O)/C(C)=C/[C@H](CC)[C@@H](O[C@@H]3OC(C)(C)[C@@H](OC(=O)C(C)C)[C@H](O)[C@@H]3O)/C(C)=C/C(C)=C/C[C@@H]([C@@H](C)O)OC2=O)O[C@@H]1C [Fidaxomicin]	85%	63%	62%	–	–	–
O=C(Nc1nc2cccc(-c3ccc(CN4CCS(=O)(=O)CC4)cc3)n2n1)C1CC1 [Filgotinib (GLPG0634)]	102%	81%	92%	–	–	–
CC(C)(C)NC(=O)[C@H]1CC[C@H]2[C@@H]3CC[C@H]4NC(=O)C=C[C@]4(C)[C@H]3CC[C@]12C [Finasteride]	93%	87%	81%	–	–	–

SMILES	% Phosphatase Activity (compared to DMSO) PRL-1 (recombinant PRL-1; [1])	% Phosphatase Activity (compared to DMSO) PRL-2 (recombinant PRL-2; [1])	% Phosphatase Activity (compared to DMSO) PRL-3 (recombinant PRL-3; [1])	% Phosphatase Activity (compared to DMSO) PRL-1 (recombinant PRL-1)	% Phosphatase Activity (compared to DMSO) PRL-2 (recombinant PRL-2)	% Phosphatase Activity (compared to DMSO) PRL-3 (recombinant PRL-3)
CCCCCCCCc1ccc(CCC(N)(CO)CO)cc1.Cl [Fingolimod (FTY720) HCl]	104%	95%	116%	–	–	–
CN1CC[C@H](c2c(O)cc(O)c3c(=O)cc(-c4ccccc4Cl)oc23)[C@H](O)C1 [Flavopiridol (Alvocidib)]	92%	82%	68%	–	–	–
Cc1c(-c2ccccc2)oc2c(C(=O)OCCN3CCCCC3)cccc2c1=O [Flavoxate HCl]	103%	109%	113%	–	–	–
CS(=O)(=O)c1ccc([C@@H](O)[C@@H](CF)NC(=O)C(Cl)Cl)cc1 [Florfenicol]	100%	111%	75%	–	–	–
O=c1[nH]c(=O)n([C@H]2C[C@H](O)[C@@H](CO)O2)cc1F [Floxuridine]	93%	100%	70%	–	–	–
COC(=O)Nc1nc2cc(C(=O)c3ccc(F)cc3)ccc2[nH]1 [Flubendazole]	91%	103%	92%	–	–	–
Nc1[nH]c(=O)ncc1F [Flucytosine]	99%	92%	74%	–	–	–
Nc1nc(F)nc2c1ncn2[C@@H]1O[C@H](COP(=O)(O)O)[C@@H](O)[C@@H]1O [Fludarabine Phosphate]	97%	91%	70%	–	–	–
Nc1nc(F)nc2c1ncn2[C@@H]1O[C@H](CO)[C@@H](O)[C@@H]1O [Fludarabine]	110%	119%	94%	–	–	–
O=C(O)c1ccccc1Nc1cccc(C(F)(F)F)c1 [Flufenamic acid]	81%	85%	69%	–	–	–
CCOC(=O)c1ncn2c1CN(C)C(=O)c1cc(F)ccc1-2 [Flumazenil]	106%	102%	69%	–	–	–
CC1CCc2cc(F)cc3c(=O)c(C(=O)O)cn1c23 (stereo not drawn) [Flumequine]	122%	112%	96%	–	–	–
Cl.Cl.Fc1ccc(C(c2ccc(F)cc2)N2CCN(C/C=C/c3ccccc3)CC2)cc1 [Flunarizine 2HCl]	111%	107%	101%	–	–	–
CNC[C@H](O)[C@@H](O)[C@H](O)[C@H](O)CO.Cc1c(Nc2ncccc2C(=O)O)cccc1C(F)(F)F [Flunixin Meglumin]	94%	88%	80%	–	–	–
CC1(C)O[C@@H]2C[C@H]3[C@@H]4C[C@H](F)C5=CC(=O)C=C[C@]5(C)[C@@]4(F)[C@@H](O)C[C@]3(C)[C@]2(C(=O)CO)O1 [Fluocinolone Acetonide]	110%	111%	82%	–	–	–
CC(=O)OCC(=O)[C@@]12OC(C)(C)O[C@@H]1C[C@H]1[C@@H]3C[C@H](F)C4=CC(=O)C=C[C@]4(C)[C@@]3(F)[C@@H](O)C[C@@]12C [Fluocinonide]	91%	92%	89%	–	–	–
CC(=O)O[C@]1(C(C)=O)CC[C@H]2[C@@H]3C[C@H](C)C4=CC(=O)C=C[C@]4(C)[C@@]3(F)[C@@H](O)C[C@@]21C [Fluorometholone Acetate]	91%	96%	79%	–	–	–
CNCCC(Oc1ccc(C(F)(F)F)cc1)c1ccccc1.Cl (stereo not drawn) [Fluoxetine HCl]	93%	105%	68%	–	–	–
C[C@]1(O)CC[C@H]2[C@@H]3CCC4=CC(=O)CC[C@]4(C)[C@@]3(F)[C@@H](O)C[C@@]21C [Fluoxymesterone]	–	–	–	90%	102%	76%
